The record followed here is publication PMC6945111, “Cryo-EM Structure of Nucleotide-Bound Tel1^ATM Unravels the Molecular Basis of Inhibition and Structural Rationale for Disease-Associated Mutations” (Structure(London, England:1993), 2020).

One test has as its target T1, Tel1 (Saccharomyces cerevisiae, UniProt P38110).
T1 construct: full-length 2787 residues, homodimer; expressed as GST-Tel1 (pBL602, Gal promoter) in S. cerevisiae PY265
Briefly: cryo-EM structure. The test is classed as binding. Conditions: 3.7-3.9 A resolution; 1 mM AMP-PNP, 4 mM Mg(OAc)2, pH 7.4, on ice; kinase active site, one Mg2+ modelled, 1 ligand per monomer.

Test [1] concerns the target Saccharomyces cerevisiae Tel1 (Saccharomyces cerevisiae) (UniProt P38110). In words: cryo-EM structure; Tel1 100 nM with 1 mM AMP-PNP and 4 mM Mg(OAc)2, diluted into 50 mM Tris-HCl, 50 mM NaCl, pH 7.4; C2 symmetry applied; homodimer.

T1 sequence (P38110 whole entry): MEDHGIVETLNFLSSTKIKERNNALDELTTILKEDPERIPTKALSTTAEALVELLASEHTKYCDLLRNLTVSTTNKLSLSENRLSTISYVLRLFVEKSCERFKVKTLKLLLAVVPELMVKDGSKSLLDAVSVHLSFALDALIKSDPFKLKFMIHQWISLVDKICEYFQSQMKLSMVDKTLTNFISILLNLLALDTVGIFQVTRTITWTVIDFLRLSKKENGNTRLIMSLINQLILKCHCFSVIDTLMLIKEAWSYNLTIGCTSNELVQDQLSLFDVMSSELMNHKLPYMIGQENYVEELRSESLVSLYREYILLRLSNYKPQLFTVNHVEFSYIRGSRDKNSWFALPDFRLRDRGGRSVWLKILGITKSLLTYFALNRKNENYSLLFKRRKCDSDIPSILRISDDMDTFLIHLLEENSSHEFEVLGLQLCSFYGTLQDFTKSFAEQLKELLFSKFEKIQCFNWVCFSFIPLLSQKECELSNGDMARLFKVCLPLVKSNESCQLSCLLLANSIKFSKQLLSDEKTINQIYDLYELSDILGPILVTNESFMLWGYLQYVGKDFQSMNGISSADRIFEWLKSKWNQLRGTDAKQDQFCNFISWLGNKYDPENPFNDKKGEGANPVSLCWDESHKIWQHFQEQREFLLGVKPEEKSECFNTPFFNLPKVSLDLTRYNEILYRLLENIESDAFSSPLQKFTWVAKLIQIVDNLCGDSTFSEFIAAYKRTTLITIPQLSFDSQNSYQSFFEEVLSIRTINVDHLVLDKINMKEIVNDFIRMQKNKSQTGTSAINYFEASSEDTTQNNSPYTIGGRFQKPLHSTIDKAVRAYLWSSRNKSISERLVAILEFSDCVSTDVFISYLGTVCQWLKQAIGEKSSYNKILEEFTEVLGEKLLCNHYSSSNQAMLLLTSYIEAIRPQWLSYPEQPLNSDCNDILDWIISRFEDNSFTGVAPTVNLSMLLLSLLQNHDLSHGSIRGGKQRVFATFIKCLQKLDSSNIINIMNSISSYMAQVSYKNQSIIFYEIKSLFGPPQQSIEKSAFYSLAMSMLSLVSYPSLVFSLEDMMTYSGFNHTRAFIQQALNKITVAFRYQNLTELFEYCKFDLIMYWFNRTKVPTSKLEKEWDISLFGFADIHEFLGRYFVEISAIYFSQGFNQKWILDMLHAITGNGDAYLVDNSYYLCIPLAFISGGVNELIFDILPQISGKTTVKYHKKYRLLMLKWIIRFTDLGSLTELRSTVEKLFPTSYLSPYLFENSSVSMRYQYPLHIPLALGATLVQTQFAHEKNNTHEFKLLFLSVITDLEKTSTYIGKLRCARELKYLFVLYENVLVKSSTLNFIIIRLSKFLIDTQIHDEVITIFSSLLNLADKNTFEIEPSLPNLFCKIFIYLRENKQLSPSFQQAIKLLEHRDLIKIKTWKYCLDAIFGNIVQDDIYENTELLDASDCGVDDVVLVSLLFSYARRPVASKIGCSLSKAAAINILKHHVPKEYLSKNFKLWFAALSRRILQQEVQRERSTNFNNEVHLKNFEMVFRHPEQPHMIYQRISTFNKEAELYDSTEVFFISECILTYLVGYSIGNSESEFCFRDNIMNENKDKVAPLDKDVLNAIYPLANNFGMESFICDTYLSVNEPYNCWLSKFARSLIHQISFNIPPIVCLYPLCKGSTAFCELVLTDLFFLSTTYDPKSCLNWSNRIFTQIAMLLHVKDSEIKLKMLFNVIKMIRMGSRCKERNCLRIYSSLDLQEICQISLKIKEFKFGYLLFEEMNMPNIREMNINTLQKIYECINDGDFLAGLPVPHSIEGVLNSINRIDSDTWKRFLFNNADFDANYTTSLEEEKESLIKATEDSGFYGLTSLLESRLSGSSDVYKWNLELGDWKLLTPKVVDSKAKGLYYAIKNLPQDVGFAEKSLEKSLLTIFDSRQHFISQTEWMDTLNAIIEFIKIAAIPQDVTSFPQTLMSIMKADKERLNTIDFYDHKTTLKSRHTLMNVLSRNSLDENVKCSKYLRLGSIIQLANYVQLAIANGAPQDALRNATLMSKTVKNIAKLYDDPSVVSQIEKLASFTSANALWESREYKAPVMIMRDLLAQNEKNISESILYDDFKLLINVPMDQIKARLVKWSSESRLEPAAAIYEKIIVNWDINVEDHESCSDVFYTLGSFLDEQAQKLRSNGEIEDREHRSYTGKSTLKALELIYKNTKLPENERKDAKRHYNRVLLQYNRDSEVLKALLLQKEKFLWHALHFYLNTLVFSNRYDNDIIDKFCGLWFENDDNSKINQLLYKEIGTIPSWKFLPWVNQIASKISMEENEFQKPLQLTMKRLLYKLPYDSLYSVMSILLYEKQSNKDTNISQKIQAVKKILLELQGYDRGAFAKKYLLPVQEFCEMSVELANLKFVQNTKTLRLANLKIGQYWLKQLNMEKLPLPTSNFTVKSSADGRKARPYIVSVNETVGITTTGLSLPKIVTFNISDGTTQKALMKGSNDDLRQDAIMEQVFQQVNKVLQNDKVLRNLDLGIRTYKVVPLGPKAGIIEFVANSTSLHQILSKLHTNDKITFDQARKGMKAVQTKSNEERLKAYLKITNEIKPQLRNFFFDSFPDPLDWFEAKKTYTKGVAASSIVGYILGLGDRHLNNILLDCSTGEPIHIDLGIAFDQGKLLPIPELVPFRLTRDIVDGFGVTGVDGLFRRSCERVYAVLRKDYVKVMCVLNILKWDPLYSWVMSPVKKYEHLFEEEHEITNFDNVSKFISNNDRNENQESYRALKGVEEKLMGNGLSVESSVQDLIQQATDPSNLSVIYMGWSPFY

In the case of `Nc1ncnc2c1ncn2[C@@H]1O[C@H](COP(=O)(O)OP(=O)(O)NP(=O)(O)O)[C@@H](O)[C@H]1O` [AMP-PNP], the cryo-EM structure entry on Tel1 is recorded as “clear density for AMP-PNP”.

As for “Saccharomyces cerevisiae Tel1, P38110 1-2787”, the stoichiometry N – broadly, the number of molecules, sites or subunits per partner or assembly – in test [1] was determined as 2.
